Reference: US6355682B1, “Treatment of acute renal failure by administration of N-acetylcysteine” (priority 2001, dated 2002)

System: patients affected by acute renal failures
Assay: Clinical case reports: N-acetycysteine given to patients with acute renal failure
Format: in vivo, human

## CC(=O)N[C@@H](CS)C(=O)O [N-acetycysteine, N-acetylcysteine]
Case No. 1: 10 mg/kg twice daily, over the next several days
  renal function: returned to normal
Case No. 1: acute renal failure after cardiogenic shock, 600 mg in a 20% solution every twelve hours, the next day
  BUN and Creatinin: the rise of BUN and Creatinin stopped
Case No. 1: after N-acetycysteine treatment
  need for dialysis: Dialysis was no longer required
Case No. 2: 20 mg/kg every twelve hours, over the next seventy-two hours
  renal function: returned to normal
Case No. 2: after N-acetycysteine treatment
  need for dialysis: Dialysis was no longer required
Case No. 2: hypovolemic shock from acute pancreatitis, 20% solution, 20 mg/kg every twelve hours, values had risen to five times normal
  BUN and Creatinin: The rise in their BUN and Creatinin stopped
Case No. 3: 20 mg/kg every twelve hours via nasogastric tube, before treatment less than 100 cc per day
  urine output: increased to the normal level
Case No. 3: multi-organ failure after cardiac arrest, 20 mg/kg every twelve hours via nasogastric tube, over the next several days
  BUN and Creatinin: progressively declined
Case No. 4: 10 mg/kg every twelve hours, two weeks after onset of renal toxicity, 11 ml/minute before treatment, normal for age above 65 ml/min
  Creatinin clearance: 22 mL/min
Case No. 4: 10 mg/kg every twelve hours, within several days
  urine output: returned to normal
Case No. 4: diabetic patient, acute renal failure under IV Vancomycin and Imipenim, 10 mg/kg every twelve hours, values had risen to five times normal
  Bun/Creatinin: progressively declined
Case No. 4: two weeks after onset of renal toxicity
  need for dialysis: dialysis was no longer required
Case No. 5: 20 mg/kg every twelve hours, within 24 hours, serum potassium 6.8 before admission
  potassium level: normalized
Case No. 5: deterioration of chronic renal failure after Ciprofloxacin, 20 mg/kg every twelve hours, within 24 hours
  urine volume: substantially increased
Case No. 5: remained on 600 mg twice daily
  need for hemodialysis: no longer required any hemodialysis
